In article PMC7594840, “Identification of histone deacetylase inhibitors with (arylidene)aminoxy scaffold active in uveal melanoma cell lines” (Journal of Enzyme Inhibition and Medicinal Chemistry, 2020):

Key:
[1] = system: HeLa nuclear extract containing a mixture of HDACs; test: HDAC Fluorimetric Assay/Drug Discovery Kit (BIOMOL) on HeLa nuclear extract; type: biochemical
Experimental: The hydroxamic acids 1a–c, 2a–f and carboxylic acids 3a–c, 4a––e synthesised in this study were preliminarily tested on a HeLa nuclear extract containing a mixture of HDACs, by using a commercially available HDAC assay kit (BIOMOL). SAHA and Trichostatin A (TSA) were used as positive controls.
HDAC inhibitory activity of newly synthesised compounds was evaluated using an HDAC Fluorimetric Assay/Drug Discovery Kit (AK-500, BIOMOL). […] Reactions were stopped after 30 min by adding Fluor de Lys^TM Developer. After the addition of this developer, the plate was incubated at room temperature for 15 min, the fluorescence intensity of the wells was measured on a fluorometric plate reader with excitation set at 360 nm and emission detection set at 460 nm.

[2] = molecular target: T1, HDAC1 (Homo sapiens, UniProt Q13547); test: Microfluidic chip-based HDAC inhibition assay (Calliper off-chip mobility shift), HDAC1; type: biochemical; conditions: duplicate, 10-point dose curve, 3-fold serial dilution from 30 μM
T1 construct: purchased BPS Bioscience
T1 sequence (Q13547 whole entry): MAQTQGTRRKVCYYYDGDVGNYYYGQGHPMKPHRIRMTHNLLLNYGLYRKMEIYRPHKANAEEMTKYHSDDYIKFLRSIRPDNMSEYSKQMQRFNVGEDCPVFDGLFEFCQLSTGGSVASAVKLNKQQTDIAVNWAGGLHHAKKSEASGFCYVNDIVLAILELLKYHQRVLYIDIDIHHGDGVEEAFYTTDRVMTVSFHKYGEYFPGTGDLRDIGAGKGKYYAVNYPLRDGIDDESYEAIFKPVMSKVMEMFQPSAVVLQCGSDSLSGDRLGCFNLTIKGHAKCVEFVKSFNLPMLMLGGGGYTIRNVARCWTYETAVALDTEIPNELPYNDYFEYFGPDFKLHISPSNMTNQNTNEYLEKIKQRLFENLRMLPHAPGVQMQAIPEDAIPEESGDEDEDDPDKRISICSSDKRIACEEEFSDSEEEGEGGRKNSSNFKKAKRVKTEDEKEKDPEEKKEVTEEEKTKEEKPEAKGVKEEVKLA
From the text: (§8) Test compounds were screened against human histone deacetylases (HDACs) 1, 3, 6, and 8 using the Calliper off-chip mobility shift assay technology. All HDACs were purchased from BPS Bioscience and four selective substrates were used according to the targeted isozyme. […] Buffers components, except for CR-3 (LabChip Coating Reagent 3, purchased from PerkinElmer, Product Number 760050) and Panobinostat (LBH589, purchased from ApexBio Technology)[35]^,[36] were purchased from Sigma Aldrich. […] (all purchased from Selleck Chemicals).

[3] = molecular target: T2, HDAC3 (Homo sapiens, UniProt O15379); test: Microfluidic chip-based HDAC inhibition assay (Calliper off-chip mobility shift), HDAC3; type: biochemical; conditions: duplicate, 10-point dose curve, 3-fold serial dilution from 30 μM; SAHA 15-point dose curve
T2 construct: purchased BPS Bioscience
T2 sequence (O15379 whole entry): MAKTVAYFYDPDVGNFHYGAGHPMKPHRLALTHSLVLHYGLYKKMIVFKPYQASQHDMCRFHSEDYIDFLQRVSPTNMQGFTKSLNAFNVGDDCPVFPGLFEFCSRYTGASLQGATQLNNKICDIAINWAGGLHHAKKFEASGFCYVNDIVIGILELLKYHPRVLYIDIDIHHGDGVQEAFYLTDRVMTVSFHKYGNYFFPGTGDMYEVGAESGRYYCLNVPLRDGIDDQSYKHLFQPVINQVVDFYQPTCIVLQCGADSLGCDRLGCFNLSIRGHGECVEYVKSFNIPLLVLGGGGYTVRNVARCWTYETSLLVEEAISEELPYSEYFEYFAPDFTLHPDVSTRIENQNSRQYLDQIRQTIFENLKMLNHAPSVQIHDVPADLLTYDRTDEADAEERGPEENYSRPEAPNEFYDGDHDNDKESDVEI
T2 sequence (Q9Y618 395-489 partner limits assumed): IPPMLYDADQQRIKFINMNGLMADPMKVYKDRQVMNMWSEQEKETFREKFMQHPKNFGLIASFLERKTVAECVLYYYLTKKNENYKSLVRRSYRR
From the text: as §8

[4] = molecular target: T3, HDAC8 (Homo sapiens, UniProt Q9BY41); test: Microfluidic chip-based HDAC inhibition assay (Calliper off-chip mobility shift), HDAC8; type: biochemical; conditions: duplicate, 10-point dose curve, 3-fold serial dilution from 30 μM
T3 construct: purchased BPS Bioscience
T3 sequence (Q9BY41 1-377): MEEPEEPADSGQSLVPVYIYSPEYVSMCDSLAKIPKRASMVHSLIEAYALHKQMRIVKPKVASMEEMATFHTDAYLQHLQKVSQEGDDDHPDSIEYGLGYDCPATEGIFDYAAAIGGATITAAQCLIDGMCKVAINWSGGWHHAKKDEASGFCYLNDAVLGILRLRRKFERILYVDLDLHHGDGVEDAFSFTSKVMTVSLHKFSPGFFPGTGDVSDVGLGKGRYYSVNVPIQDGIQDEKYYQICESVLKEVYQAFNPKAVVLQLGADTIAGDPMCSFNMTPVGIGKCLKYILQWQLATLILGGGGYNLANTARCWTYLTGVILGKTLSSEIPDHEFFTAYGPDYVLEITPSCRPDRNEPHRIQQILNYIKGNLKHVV
From the text: as §8

[5] = system: Mel270 cells; test: MTT cell viability assay, UM cell line Mel270; type: cell-based, human; conditions: 72 h treatment, compared with SAHA and LD10
Experimental: The anti-proliferative effects of the most promising HDAC inhibitors, VS16, VS13, SN2, and LD10 were evaluated on human UM cell lines (92.1 and Mel270) and SAHA was used as a positive control. First, we assessed by MTT assay the cell viability after a 72 h treatment at different concentrations. […] Similar results were found for ovarian carcinoma cell line A2780 and to a lesser extent for SKOV3 (Supplementary Figure S2).
Figure 7. MTT. In vitro cytotoxicity at the 72 h time point of the different compounds in human UM cell lines 92.1 and Mel270, as assessed by the MTT cell viability assay. Data are expressed as percent of control with the DMSO solvent, which was used at the same amount present in the highest compound concentration. Error bars represent SD of quadruplicates. One representative experiment is shown.
(§1) Treatments with the compounds were performed with slight differences, according to the final use of the samples. For the cell viability assay with MTT, cells were seeded in 96-well flat-bottom plates in culture medium at 5 × 10^3 cells/well, whereas for cell cycle analysis and QRT-PCR cells were seeded in 24-well plates at 5 × 10^4 cells/well. The day after, a culture medium containing the appropriate amount of compounds or their solvent control DMSO was added, and treatments were carried out for the indicated time.
Cell viability after treatment was evaluated by a microculture tetrazolium reduction assay using MTT [3–(4,5-dimethyltiazol-2-yl) 2,5-diphenyltetrazolium bromide; Sigma]. At 72 h of treatment, 20 μl of MTT stock solution (2 mg/ml in PBS) were added to 200 μl cell cultures for an additional 4 h of incubation. MTT-containing culture medium was then removed and precipitated formazan was dissolved in 100 μl of DMSO. Results were read within 15 min in a microplate reader spectrometer at 540 nm (MEDGENIX 400 ATC, Medgenix Diagnostics), and the means of quadruplicates were calculated. Cell survival was expressed as a percentage of control samples.

[6] = system: 92.1 cells; test: Cell cycle distribution by flow cytometry (PI), 92.1 cells; type: cell-based, human; conditions: 10 µM compound, 48 h
Experimental: (§2) We then investigated whether this anti-proliferative effect was due to the blockade in the G0/G1 phase of the cell cycle, as expected for SAHA[31].
(§3) Figure 8. Influence of the different compounds and DMSO solvent control on cell cycle distribution in UM 92.1 and Mel270 cells. The cells were treated with 10 µM compound for 48 h and cell cycle distribution was analysed by flow cytometry after fixation and staining with PI. The percentage of cells in each category is indicated. One representative experiment is shown.
as §1
(§4) To assess the cell cycle status of treated samples, after 48 h of incubation the cells were harvested, washed twice with cold PBS, and fixed in 70% ethyl alcohol at −20 °C overnight. The day after, the samples were washed with cold PBS and incubated for 20 min with propidium iodide (PI) staining solution (50 μg/ml PI, 0.05% Triton X-100, 0.2 mg/ml RNase A in PBS) at room temperature. Flow cytometric analysis of DNA content was performed using a FACScan flow cytometer with the CellQuest software (BD Biosciences). Gating on viable cells was performed using physical parameters and 10^4 gated events were acquired. Cell cycle analysis on the gated PI distribution was performed using Modfit software.

[7] = system: Mel270 cells; test: Cell cycle distribution by flow cytometry (PI), Mel270 cells; type: cell-based, human; conditions: 10 µM compound, 48 h
Experimental: as §2, §3, §1, §4

[8] = system: HDAC target genes (RAD54L, RAD51, CLU, DHRS2, CDKN1A) in 92.1 cells; test: QRT-PCR of mRNA levels of HDAC target genes, 92.1 cells; type: cell-based, human; conditions: 10 µM compound, 48 h, normalised to GAPDH
Experimental: (§5) Finally, we determined if the treatment of UM cells 92.1 and Mel270 with our compounds could modify the mRNA levels of HDAC target genes. […]
(§6) Figure 9. Modulation of RAD54L, RAD51 and CLU mRNA expression by the different compounds in UM cells 92.1 and Mel270. Cells were treated for 48 h with 10 µM compound or the corresponding amount of DMSO. Data, normalised to GAPDH housekeeping gene, are expressed as fold change relative to the DMSO control. Error bars represent SD of triplicates. One representative experiment is shown.
as §1
(§7) To assess the modulation of gene expression, cells were harvested at 48 h of treatment and total RNA was isolated using the NucleoSpin RNA kit (Macherey-Nagel) and reverse-transcribed with the SuperScript III Reverse Transcriptase (Invitrogen). […] Expression levels of mRNAs relative to untreated control were calculated by the ΔΔCT method (Table 3).

[9] = system: HDAC target genes (RAD54L, RAD51, CLU) in Mel270 cells; test: QRT-PCR of mRNA levels of HDAC target genes, Mel270 cells; type: cell-based, human; conditions: 10 µM compound, 48 h, normalised to GAPDH
Experimental: as §5, §6, §1, §7

O=C(CCCCO/N=C/c1cnc2ccccc2c1)NO [Compound 2f, (E)-N-hydroxy-5-(((quinolin-3-ylmethylene)amino)oxy)pentanamide]
folds more potent than SAHA ([1]; HeLa extract IC50 compared with SAHA): 3- to 5 fold | IC50 ([1]; means of at least three experiments, SD <20% of the mean): 54 nM | IC50 [2]: 137 nM | IC50 [3]: 40 nM | IC50 [4]: 9.29 µM | effect on cell viability (MTT) [5]: stronger effect | effect on cell cycle distribution [6]: efficiently block the cell cycle at the G0/G1 phase | effect on cell cycle distribution [7]: efficiently block the cell cycle at the G0/G1 phase | modulation of mRNA levels of HDAC target genes [8]: induced a pattern of gene modulation, which overlapped that of SAHA | modulation of mRNA levels of HDAC target genes [9]: induced a pattern of gene modulation, which overlapped that of SAHA
